Several values for one entry are separate records, joined by “and”; a condition that tells them apart may be missing. Equal values may be shown once. Read-outs that look alike come from different tables or passages of the source.
Columns and labels:
[1] = system: soleus muscles from WT mice; assay: Muscle force in vitro, soleus from WT mice (heat contracture, twitch, tetanus); type: cell-based, mouse; set-up: stress (stress-frequency relationship): unit not given beside the values
Method: Muscle contraction measurement was assessed using intact soleus muscle as follows. WT and R2509C mice (8- to 20-week old) were anesthetized with an i.p. injection of sodium pentobarbital (70 mg/kg body weight) and the soleus muscles were dissected. The isolated muscles were mounted between a force transducer (UL-100; Minebea Co., Tokyo, Japan) and a fixed hook in a chamber containing Krebs solution (140 mmol/L NaCl, 5 mmol/L KCl, 2 mmol/L CaCl2, 1 mmol/L MgCl2, 1 mmol/L NaH2PO4, 25 mmol/L NaHCO3, and 11 mmol/L glucose) bubbled with 95% O2 and 5% CO2 at 25 °C. The muscle force was recorded and analyzed by LabChart v6 (AdInstruments, Dunedin, New Zealand). The muscles were stretched to determine the length which produced maximum twitch contraction in response to field stimulation for 1 msec at supramaximal voltage. For caffeine contracture studies, muscles were exposed for 2 min to Krebs solution containing 10, 15, or 20 mM caffeine. For heat-induced contracture studies, muscles were exposed to Krebs solution warmed at 27, 35, 40, and 42 °C until basal force peaked. For twitch and tetanic contraction measurements, muscles were stimulated at 1 min intervals with 20 trains of 1, 2, 5, 10, 20, 50, 100, and 200 Hz pulses. For Cpd1 treatment, muscles were incubated with Krebs solution containing 3 µM Cpd1 15 min prior to measurements. Absolute contractile force was normalized to the maximum diameter of the muscle.

R2509C mice [2] = type: in vivo, mouse; settings: for Survival 60 min after administration (survivors/total) / mice surviving 60 min after administration: rescue
[3] = system: FDB muscle cells from R2509C mice; assay: Ca2+ imaging (Cal520, fura-2) of isolated single FDB cells from R2509C mice, rest, halothane, isoflurane; type: cell-based, mouse
Method: (§1) WT and mutant mice (R2509C, 8- to 20-week old; R163C, 12- to 16-week old, and G2435R, 12- to 16-week old) were euthanized and flexor digitorum brevis (FDB) muscles were dissected and incubated with 2 mg/mL collagenase (Worthington Biochemical Co., NJ, USA) in the HEPES-Krebs solution containing 2 mg/mL bovine serum albumin for 2–3 h at 37 °C. Following incubation, single cells were separated by gentle trituration in collagenase-free HEPES-Krebs solution. Isolated single FDB cells were seeded on a laminin-coated cover slip of the 35 mm glass-bottom dish or on 96 well plate coated with Cultrex basement membrane matrix (Trevigen, Minneapolis, USA).
Isolated single FDB cells were incubated with 4 µM Cal520-AM (AAT Bioquest, CA, USA) or fura-2-AM (Thermo Fisher Scientific) dye in the HEPES-Krebs solution (140 mM NaCl, 5 mM KCl, 2 mM CaCl2, 1 mM MgCl2, 11 mM glucose, 5 mM HEPES, pH 7.4) for 30 min at 37 °C. The cells were then washed three times with the HEPES-Krebs solution to remove excess dye, and after 30 min of de-esterification, fluorescence images were obtained with a 20X (NA = 0.75) objective lens of an inverted microscope (Nikon TE2000-E Japan) equipped with the sCMOS camera (Zyla, Andor, Belfast, Northern Ireland) using Metamorph v7 (Molecular Devices). Cal520 was excited at 480 ± 15 nm, and fluorescence was measured at wavelengths of 525 ± 25 nm. Fura-2 was excited at alternating lights of 340 ± 6 nm and 380 ± 6 nm, fluorescent light was detected at 510 ± 40 nm, and the ratio of fluorescence excited at 340 nm to that at 380 nm was determined. Imaging experiments were carried out at 26 °C by superfusing a HEPES-Krebs solution with or without halothane or isoflurane. Cpd1 was administered 5 min before measurements. For Mn^2+ quenching experiments, fura-2 was excited at 360 ± 12 nm and emitted fluorescence at 510 ± 40 nm was monitored. The cells were perfused with basal Krebs solution (140 mM NaCl, 5 mM KCl, 1 mM MgCl2, 11 mM glucose, 2 mM CaCl2, 10 mM HEPES, pH 7.4) for 60 s to obtain the baseline signal and then perfused with Mn^2+ quenching Krebs solution (140 mM NaCl, 5 mM KCl, 1 mM MgCl2, 11 mM glucose, 0.5 mM MnCl2, 10 mM HEPES, pH 7.4) for 180 s followed by reperfusion with basal Krebs solution for 120 s.

[4] = Metabolic stability in human liver microsomes; type: in vitro ADME; settings: 0.5 μM, NADPH
Method: Cpd1 (final concentration was 0.5 μM) was incubated with human or mouse hepatic microsomes (XenoTech Ltd, Kansas City, KS) with nicotinamide adenine dinucleotide phosphate (NADPH) for 10 and 60 min at 37 °C. Each reaction was stopped by acetonitrile, and the value of unchanged compound 1 was determined by quantitating using LC–MS/MS, and the metabolic stability was evaluated as a remaining rate (%).

R2509C mice [5] = type: in vivo, mouse
[6] = system: FDB muscle cells from WT mice; assay: Ca2+ imaging (Cal520, fura-2) of isolated single FDB cells from WT mice; type: cell-based, mouse
Method: as §1
Isolated single FDB cells were incubated with 4 µM Cal520-AM (AAT Bioquest, CA, USA) or fura-2-AM (Thermo Fisher Scientific) dye in the HEPES-Krebs solution (140 mM NaCl, 5 mM KCl, 2 mM CaCl2, 1 mM MgCl2, 11 mM glucose, 5 mM HEPES, pH 7.4) for 30 min at 37 °C. The cells were then washed three times with the HEPES-Krebs solution to remove excess dye, and after 30 min of de-esterification, fluorescence images were obtained with a 20X (NA = 0.75) objective lens of an inverted microscope (Nikon TE2000-E Japan) equipped with the sCMOS camera (Zyla, Andor, Belfast, Northern Ireland) using Metamorph v7 (Molecular Devices). Cal520 was excited at 480 ± 15 nm, and fluorescence was measured at wavelengths of 525 ± 25 nm. […]

[7] = 1 mg/kg i.p. 8 times every 10 min
[8] = preventive, 10 mg/kg i.p. 10 min before isoflurane, 10 mg/kg
[9] = preventive, 10 mg/kg 10 min before heat stress

## CCCCCCCCn1cc(C(=O)O)c(=O)c2cc3c(cc21)OCO3 [Cpd1, 6,7-(methylenedioxy)-1-octyl-4-quinolone-3-carboxylic acid]
[1]; 3 μM Cpd1
  twitch tension: 0.08926 and 0.06376 and 0.0706 and 0.1008 and 0.09044
[1]; 3 μM Cpd1, 1 Hz
  stress (stress-frequency relationship): 0.07934 and 0.05313 and 0.0706 and 0.09238 and 0.1028
[1]; 3 μM Cpd1, 2 Hz
  stress (stress-frequency relationship): 0.07934 and 0.05313 and 0.0706 and 0.09238 and 0.1028
[1]; 3 μM Cpd1, 10 Hz
  stress (stress-frequency relationship): 0.08926 and 0.05313 and 0.0706 and 0.09238 and 0.09866
[1]; 3 μM Cpd1, 50 Hz
  stress (stress-frequency relationship): 0.7934 and 0.7651 and 0.5531 and 0.7307 and 0.4851
R2509C mice [2]; 1 mg/kg i.p. 8 times at 10 min intervals, isoflurane
  effect on rise in rectal temperature: successfully prevented rise in the rectal temperature
R2509C mice [2]; [7]
  Survival 90 min after isoflurane challenge (survivors/total): all the mice survived
R2509C mice [2]; 3 mg/kg i.p. each time rectal temperature reached 39 °C, isoflurane
  effect of second and third administrations on rectal temperature: successfully decreased the rectal temperature
R2509C mice [2]; preventive, 3 mg/kg i.p.
  effect on rise in rectal temperature: did not prevent rise in rectal temperature
R2509C mice [2]; preventive, 3 mg/kg i.p. 10 min before isoflurane, 3 mg/kg
  Survival after 90 min of anesthesia (survivors/total): 1 out of 6
R2509C mice [2]; preventive, 3 mg/kg i.p. 10 min before isoflurane, listed as Cpd 1, 3 mg/kg
  Survival after 90 min of anesthesia (survivors/total): 1/6
R2509C mice [2]; preventive, 3 mg/kg i.p., n = 5
  Time to death: 47 ± 15 min
R2509C mice [2]; preventive, 10 mg/kg i.p.
  effect on rise in rectal temperature: successfully prevented any rise in rectal temperature
R2509C mice [2]; [8]
  Maximum rectal temperature: 36.1797 °C and 35.7812 °C and 35.4844 °C and 36.3594 °C and 36.1344 °C and 36.1406 °C
  Survival after 90 min of anesthesia (survivors/total): All the treated mice survived
R2509C mice [2]; 3 mg/kg i.p. at 39 °C
  Survival 60 min after administration (survivors/total): 6/10
  mice surviving 60 min after administration: 60%
R2509C mice [2]; 10 mg/kg i.p. at 39 °C
  Survival 60 min after administration (survivors/total): 8/8
  mice surviving 60 min after administration: 100%
[3]; R2509C cells, 0.1 μM
  effect on isoflurane-induced increase in [Ca2+]i: completely prevented
  effect on resting [Ca2+]i (Cal520): reduced
[3]; R2509C cells, 0.1 μM Cpd1, halothane 0.0001
  Ca2+ signal (Cal520, F/F0): 1
[3]; R2509C cells, 0.1 μM Cpd1, halothane 0.001
  Ca2+ signal (Cal520, F/F0): 1.0324 and 1.0472 and 0.9774 and 0.9848 and 0.9736
[3]; R2509C cells, 0.1 μM Cpd1, halothane 0.003
  Ca2+ signal (Cal520, F/F0): 1.0085 and 1.0149 and 0.9846 and 0.9811 and 0.9717
[3]; R2509C cells, 0.1 μM Cpd1, halothane 0.01
  Ca2+ signal (Cal520, F/F0): 1.0131 and 1.0119 and 0.9966 and 0.9808 and 0.9633
[3]; R2509C cells, 0.1 μM Cpd1, halothane 0.03
  Ca2+ signal (Cal520, F/F0): 0.9989 and 1.0012 and 1.0266 and 1.0111 and 1.0033
[3]; R2509C cells, 0.1 μM Cpd1, halothane 0.1
  Ca2+ signal (Cal520, F/F0): 1.0006 and 0.9977 and 1.0575 and 1.0571 and 1.0156
[3]; R2509C cells, 0.1 μM Cpd1, isoflurane 0
  Ca2+ signal (fura-2 ratio): 1.236 and 1.532 and 1.49 and 1.463 and 1.64 and 1.372 and 1.497 and 1.401
[3]; R2509C cells, 0.1 μM Cpd1, isoflurane 0.1
  Ca2+ signal (fura-2 ratio): 1.237 and 1.533 and 1.482 and 1.467 and 1.643 and 1.374 and 1.485 and 1.496
[3]; R2509C cells, 0.1 μM Cpd1, isoflurane 0.2
  Ca2+ signal (fura-2 ratio): 1.24 and 1.549 and 1.492 and 1.502 and 1.673 and 1.396 and 1.504 and 1.444
[3]; R2509C cells, 0.1 μM Cpd1, isoflurane 0.5
  Ca2+ signal (fura-2 ratio): 1.266 and 1.58 and 1.488 and 1.503 and 1.677 and 1.451 and 1.62 and 1.544
[3]; R2509C cells, 0.1 and 0.3 µM
  effect on resting [Ca2+]i (fura-2): reduced [Ca^2+]i in R2509C cells in a dose-dependent manner
[3]; R2509C cells, pretreatment 0.1 µM
  effect on halothane-induced increases in [Ca2+]i: completely abolished
[3]; R2509C, single experiments
  Ca2+ signal with Cpd1 relative to None = 1 (sheet Fig S1b): 0.9373 and 0.9655 and 0.9601 and 0.9482 and 0.7826 and 0.8571
[4]; 10 min
  remaining rate (residual Cpd1, 0 min = 100%): 69% and 68% and 65% and 66%
[4]; 60 min
  remaining rate (residual Cpd1, 0 min = 100%): 25% and 26% and 23%
R2509C mice [5]; 1 mg/kg i.p. 8 times at 10 min intervals, heat stress
  effect on rise in rectal temperature: successfully prevented rise in the rectal temperature
R2509C mice [5]; [7]
  Survival 90 min after heat stress challenge (survivors/total): all the mice survived
R2509C mice [5]; 3 mg/kg, preliminary experiments
  preventive effect in heat stress experiments: no effect
R2509C mice [5]; preventive, 10 mg/kg
  effect on rate of temperature rise: slowed the rate of temperature rise
R2509C mice [5]; [9]
  Survival 120 min after heat stress challenge (survivors/total): 0 out of 4 and 0/4
  Time to death from start of heat stress challenge: 115.67 min and 109.33 min and 83.5 min and 85 min
R2509C mice [5]; rescue, 3 mg/kg i.p. at 38 °C
  Survival 60 min after administration (survivors/total): 5/6
R2509C mice [5]; rescue, 3 mg/kg i.p. at 39 °C, 3 mg/kg
  Survival 60 min after administration (survivors/total): 3/5 and 3 out of 5
R2509C mice [5]; rescue, 10 mg/kg i.p. at 38 °C
  Survival 60 min after administration (survivors/total): 6/6
R2509C mice [5]; rescue, 10 mg/kg i.p. at 39 °C, 10 mg/kg
  Survival 60 min after administration (survivors/total): 10/11 and 10 out of 11
R2509C mice [5]; rescue, 3 and 10 mg/kg i.p. at 38 °C
  effect on continued rise in body temperature: strongly suppressed
[6]; WT cells, 0.1 and 0.3 µM
  effect on resting [Ca2+]i (fura-2): no significant effect
[6]; WT, single experiments
  Ca2+ signal with Cpd1 relative to None = 1 (sheet Fig S1b): 0.9888 and 0.981 and 0.9775 and 0.9827 and 0.9913
